# Measurements published in patent EP2216326B1, “Biologically acceptable choline compounds and their use as tensides” (Universität Regensburg, priority 2009, dated 2010).
# Read-outs that look alike come from different tables or passages of the source.
# Assays:
# HeLa-Zellen = experiment: MTT assay (Mosmann) cytotoxicity on HeLa cells; type: cell-based, human; details: 72 h at 37°C, at least 5 independent measurements, high values mean low toxicity
# Text: (§1) Die Zytotoxizität und Hautverträglichkeit von ChDS im Vergleich zu anderen gängigen anionischen Tensiden wurden mittels in-vitro Tests an HeLa-Zellen (humane Gebärmutterhalskrebszellen) und SK-MHL 28 Zellen (humane Melanom-Zellen) getestet. Dieses etablierte in vitro Verfahren ist in N. Vlachy, D. Touraud, J. Heilmann, W. Kunz, Colloids and Surfaces B: Biointerfaces, 2009, 70, 278 - 280 beschrieben und bietet eine gute Alternative zu den in vivo Draize-Augenirritationstests.
# (§2) Die Zellen wurden von der American Type Culture Collection (ATCC) zur Verfügung gestellt. Die Kultivierung der HeLa-Zellen erfolgte in Earle's minimum essential medium (MEM) mit 0.85 g/l Natriumhydrogencarbonat, zusätzlich versetzt mit fötalem Kälberserum (10%), L-Glutamin (2mM), nichtessentiellen Aminosäuren (1%), Amphotericin B ([…]) und Penicillin G/Streptomycin Sulfat (100u/ml). Die SK - MEL 28 - Zellen wurden in einer 1:1 Mischung aus Dulbecco's MEM mit 4.5 g/l Natriumhydrogencarbonat sowie LGlutamin und Pyrovat und HAM'S F-12 Medium mit 1.176 g/l Natriumhydrogencarbonat und stabilem Glutamin, versetzt mit 10% fötalem Kälberserum, kultiviert.
# (§3) Die Inhibitionskonzentration an Testsubstanz, welche zu einer Reduktion an lebenden Zellen um 50% im Vergleich zu einer unbehandelten Kontrolle führt (IC 50), wurde via MTT-Assay nach Mosmann festgestellt.
# (§4) Hierzu wurden in der ersten Spalte einer 96-Well-Platte je 15 µl an wässriger Testsubstanzlösung mit 135 µl Medium durchmischt. Je 75 µl dieser Mischung wurden abgenommen und in der zweiten Spalte mit 75 µl Medium verdünnt. Diese Prozedur wurde bis zur vollständigen Füllung der Platte von Spalte zu Spalte wiederholt. Anschließend wurden in jedem Well 11250 Zellen in 75 µl Medium angesät. Die so vorbereiteten Platten wurden 72 Stunden bei 37°C im Brutschrank aufbewahrt.
# (§5) Danach wurden 15 µl MTT - Lösung zu jedem Well gegeben und für weitere 4 Stunden inkubiert. Im Anschluss wurde die überstehende Lösung abgetrennt und der reduzierte MTT-Bodensatz jeweils mit 150 µl 10%iger Natrumdodecylsulfat-Lösung versetzt. Nachdem die Platten über Nacht unter Lichtausschluss stehen gelassen wurden, wurde die Absorption der Lösungen bei 560 nm mittels einem TECAN Spectra Fluor Plus microplate reader bestimmt. Nach Mittelung an zwei Einzelmessungen konnte aus den sich ergebenden Dosis-Wirkungskurven der entsprechende IC 50 Wert errechnet werden. Angegebene Werte der Inhibitionskonzentration errechnen sich aus mindestens 5 unabhängigen Messungen.
# [1] = cited from earlier work; for TKr (Krafft-Temperatur): literature values of comparison substances, references (1)-(3); for Löslichkeitstemperatur in Wasser: water, literature or background statement
# SK-MEL 28-Zellen = experiment: MTT assay (Mosmann) cytotoxicity on SK-MEL 28 cells; type: cell-based, human; details: 72 h at 37°C, at least 5 independent measurements, high values mean low toxicity
# Text: as §1, §2, §3, §4, §5
# [2] = Krafft temperature (solubility temperature of a 1 wt% aqueous solution) by turbidity measurement, with and without added salt; type: physicochemical
# Text: Als Maß für die Löslichkeit und Salzempfindlichkeit wurden die Krafft-Punkte in Abwesenheit von Salzen sowie bei unterschiedlichen Salzkonzentrationen herangezogen.
# Allgemein kann die Krafft-Temperatur eines Tensids als die Löslichkeitstemperatur einer 1 Gew. %igen Lösung definiert werden, da die CMC generell weit unterhalb dieser Konzentration liegt (R. G. Laughlin, The Aqueous Phase Behavior of Surfactants, Academic Press, San Diego, 1994, p. 108). Dementsprechend wurde zur Bestimmung der Krafft-Temperatur von ChDS eine 1 gew. - %ige Lösung eingewogen. Zur Untersuchung des Einflusses von Salzen auf den Krafft-Punkt wurden 1 gew% - igen Lösungen von ChDS verschiedene Mengen an Natriumchlorid (Merck, p.a.) bzw. Cholinchlorid (Sigma-Aldrich, min. 98%) zugesetzt und die zugehörige Löslichkeitstemperatur gemessen.
# Präzise Löslichkeitstemperaturen wurden aus Trübungsmessungen gemäß des in S. Schrödle, R. Buchner, W. Kunz, Fluid Phase Equilib., 2004, 216, 175-182 beschriebenen Verfahrens erhalten. Hierzu wurden alle untersuchten Proben bis zum Auftreten eines Niederschlags abgekühlt und anschließend mit einer Rate von 5°C pro Stunde wieder aufgeheizt.
# Die Salzempfindlichkeit wurde durch Messung der Krafft-Temperatur bei unterschiedlichen Salzkonzentrationen untersucht.
# [3] = Solubility in organic solvents; type: physicochemical; details: Chloroform, Aceton, Acetonitril or Dimethylsulfoxid
# [4] = Surface tension of aqueous surfactant solutions, ring method (Krüss Tensiometer K100); type: physicochemical; details: 25°C, aqueous solution, value reached starting from ca. 70 mN/m for water (Figur 3)
# Protocol: Die Herabsetzung der Grenzflächenspannung von Wasser durch Zugabe an Tensid ist ein wichtiges Maß für die Effizienz eines Tensids. Die Oberflächenspannung von wässrigen ChDS- und SDS- Lösungen wurde anhand der Ringmethode mit einem Krüss Tensiometer K100 vermessen. Figur 3 zeigt die gemessene Grenzflächenspannung bei einer Temperatur von 25°C in Abhängigkeit von der Konzentration.
# Ratten-Gliom-Zellen = details: rat glioma cells, cited from earlier work
smiles,measurement,setting,value
"CCCCCCCCCCCC(=O)O [ChCl2, Cholinlaurat]",IC50,HeLa-Zellen,305 ± 6 µM
same,TKr (Krafft-Temperatur),[1],<0°C^(3)
same,IC50,SK-MEL 28-Zellen,360 ± 10 µM
"CCCCCCCCCCCCOS(=O)(=O)O [ChDS, Cholindodecylsulfat]",IC50,"HeLa-Zellen; Homo sapiens, HeLa, 72 h",404 ± 4 µM
same,TKr (Krafft-Temperatur),"[2]; 1 wt% aqueous solution, no salt, turbidity measurement",0 °C
same,Anstieg der Krafft-Temperatur,"[2]; NaCl:surfactant ratio of 1:1, 1 wt% solution (Figur 1, Figur 2)",~7 °C
same,in Wasser löslich bis (Temperatur),"[2]; water, found by the applicant",< 0 °C
same,Löslichkeit in organischen Lösungsmitteln,[3],gut löslich
same,IC50,"SK-MEL 28-Zellen; Homo sapiens, SK-MEL-28, 72 h",430 ± 20 µM
same,Grenzflächenspannung von Wasser,[4],ca. 37 mN/m
"C[N+](C)(C)CCO [Cholin, (2-Hydroxyethyl)trimethylammonium]","Toxizität geringer im Vergleich zu Tetramethylammonium (TMA), Faktor",Ratten-Gliom-Zellen; factor of lower toxicity versus TMA,"5,5"
same,"Toxizität geringer im Vergleich zu Tetrabutylammonium, -fach",Ratten-Gliom-Zellen; fold lower toxicity versus tetrabutylammonium,> 500
"CCCCCCCCCCCC(=O)O [KC12, Kaliumlaurat]",IC50,"HeLa-Zellen; Homo sapiens, HeLa, 72 h",234 ± 5 µM
same,TKr (Krafft-Temperatur),[1],10°C^(3)
same,IC50,"SK-MEL 28-Zellen; Homo sapiens, SK-MEL-28, 72 h",400 ± 10 µM
"CCCCCCCCCCCCOS(=O)(=O)O [KDS, Kaliumdodecylsulfat]",TKr (Krafft-Temperatur),[1],40°C^(1)
"CCCCCCCCCCCC(=O)O [NaCl2, Natriumlaurat]",IC50,HeLa-Zellen,230 ± 10 µM
same,TKr (Krafft-Temperatur),[1],25°C^(2)
same,IC50,SK-MEL 28-Zellen,420 ± 10 µM
"CCCCCCCCCCCCOS(=O)(=O)O [SDS, Natriumdodecylsulfat]",IC50,HeLa-Zellen,270 ± 10 µM
same,TKr (Krafft-Temperatur),[1],16°C^(1)
same,Löslichkeitstemperatur in Wasser,[1],12-25 °C
same,Löslichkeit in organischen Lösungsmitteln,[3],nur geringe Löslichkeit
same,IC50,SK-MEL 28-Zellen,320 ± 30 µM
same,Grenzflächenspannung von Wasser,[4],ca. 36 mN/m
CCCCCCCCCCCCOS(=O)(=O)O [Tetramethylammoniumdodecylsulfat],Löslichkeitstemperatur in Wasser,[1],< 0 °C
